Measured values as given in patent publication US6821761B2, “Sphingolipid ceramide N-deacylase, methods for producing sphingolipids and sphingolipid derivatives, and sphingolipid ceramide N-deacylase gene” (Takara Bio, Inc., priority 1994, dated 2004).

Columns and labels:
[1] = test system: SCDase derived from the genus Pseudomonas; test: Reverse reaction on various acceptors by SCDase-1 ([1-14C] stearic acid); type: biochemical; conditions: 1 nmol [1-14C] stearic acid, 1 nmol lysosphingolipid, 30 μU SCDase, acetate buffer pH 6.0, 0.8% Triton X-100, overnight 37° C., galactosylsphingosine = 100
Protocol: A 10 μl portion of 50 mM acetate buffer (pH 6.0) containing 1 nmol [1-^14C] stearic acid, 1 nmol lysosphingolipid, 0.8% Triton X-100 and 30 μU SCDase derived from the genus Pseudomonas was subjected to overnight reaction at 37° C. The thus obtained reaction solution was developed on thin layer chromatography and exposed to an imaging plate to carry out for determining the reaction product by BAS 1000 Imaging Analyzer (manufactured by Fuji Photo Film).

[2] = test system: SCDase derived from the genus Pseudomonas; test: Reverse reaction on various acceptors by SCDase-2 (N-trifluoroacetylated aminododecanoic acid); type: biochemical; conditions: 66.6 nmol N-trifluoroacetylated aminododecanoic acid, 33.3 nmol lysosphingolipid, 148 μU SCDase, glycine-NaOH pH 11, 0.3% Triton X-100, 48 hours 37° C.
Protocol: A 41.6 μl portion of 25 mM glycine-sodium hydroxide buffer (pH 11) containing 66.6 nmol N-trifluoroacetylated aminododecanoic acid, 33.3 nmol lysosphingolipid, 0.3% Triton X-100 and 148 μU SCDase derived from the genus Pseudomonas was subjected to 48 hours of reaction at 37° C.
The thus obtained reaction solution was developed on thin layer chromatography, a glycosphingolipid was colored with orcinol-sulfuric acid, and other sphingolipids with Coomassie Brilliant Blue, and then determination of the reaction product was carried out by Imaging Densitometer (manufactured by Bio-Rad).

[3] = test system: SCDase derived from the genus Pseudomonas; test: Fatty acid exchange reaction on various acceptors by SCDase; type: biochemical; conditions: 1 nmol [1-14C] stearic acid, 1 nmol sphingolipid, 30 μU SCDase, acetate buffer pH 6.0, 0.8% Triton X-100, overnight 37° C., galactosyl ceramide = 100
Protocol: A 10 μl portion of 50 mM acetate buffer (pH 6.0) containing 1 nmol [1−^14C] stearic acid, 1 nmol sphingolipid, 0.8% Triton X-100 and 30 μU SCDase derived from the genus Pseudomonas was allowed to react overnight at 37° C.
The thus obtained reaction solution was developed on thin layer chromatography and exposed to an imaging plate to carry out determination of the reaction product by BAS 1000 Imaging Analyzer (manufactured by Fuji Photo Film).

Pseudomonas sp. TK-4 = test: Conversion of glycosphingolipids into lyso-forms by culture of Pseudomonas sp. TK-4; type: cell-based; conditions: PY medium with 0.1% 2,6-O-dimethyl-β-cyclodextrin, glycosphingolipid 0.5 mg/ml (Gb4 0.1 mg/ml), 25° C. shaking 3 days, TLC of supernatant
Protocol: A 60 ml portion of PY medium (polypeptone 0.5%, yeast extract 0.1%, sodium chloride 0.2%; pH 7.2) containing 30 mg of ganglioside GM1 (manufactured by Iatron) and 0.1% of 2,6-O-dimethyl-β-cyclodextrin was sterilized and inoculated with the strain which had been incubated overnight in a slant medium containing 0.1% of crude bovine brain ganglioside prepared in accordance with the method described in Methods in Enzymology, 14:660-664 (1969). Then, the strain was incubated therein under shaking at 25° C. for 3 days.
Then the cells were eliminated by centrifuging the culture medium and thus the culture supernatant was obtained.
PY medium (polypeptone 0.5%, yeast extract 0.1%, sodium chloride 0.2%; pH 7.2) containing 0.1% of 2,6-O-dimethyl-β-cyclodextrin was sterilized in an autoclave and filter-sterilized aqueous solutions of various glycosphingolipids [i.e., GM1, GM2 (manufactured by Matreya), GM3 (manufactured by Iatron), GD1a (manufactured by Iatron), GD1b (manufactured by Iatron), GD3 (manufactured by Iatron), GT1b (manufactured by Biocarb), sulfatide (manufactured by Matreya): each 0.5 mg/ml, Gb4 (manufactured by Iatron): 0.1 mg/ml] were added thereto. Then each medium was inoculated with Pseudomonas sp. TK-4, which had been incubated overnight in a slant medium containing 0.1% of crude bovine brain ganglioside, followed by incubation at 25° C. under shaking for 3 days.
Then the cells were eliminated by centrifuging the culture medium to obtain the culture supernatant which was then analyzed by thin layer chromatography.

crude SCDase = test: Substrate specificity of crude SCDase (culture supernatant) from Shewanella alga NS-589; type: biochemical; conditions: for Substrate specificity: acting on the substrate, forming the corresponding lysosphingolipid and fatty acid: SCDase produced by Shewanella alga NS-589; for Digestion ratio (%): crude SCDase supernatant, 1.2 mM sphingolipid, acetate buffer pH 6.0, Triton X-100, 37° C. 16 hours, TLC
From the text: Acting on acidic glycolipids (GM1, GM2, GD1a, GD1b, sialosyl paragloboside, etc.), neutral glycolipids (lactosyl ceramide, Gb4, Gb5, etc.), sulfated glycolipids (sulfatide, etc.) and sphingomyelin which is a sphingophospholipid, thus forming the corresponding lysosphingolipid and fatty acid in each case.
The substrate specificity was examined as follows. Shewanella alga NS-589 was inoculated into a synthetic medium (dipotassium hydrogenphosphate 0.05%, ammonium chloride 0.05%, sphingomyelin 0.1%, sodium taurodeoxycholate 0.1%, sodium chloride 2%, 2,6-O-dimethyl-β-cyclodextrin 0.1%; pH 7.4). Two days after shaking cultivation at 30° C., the strain was removed to obtain a supernatant by centrifuge. A 50 mM acetate buffer ([…]; pH 6.0) containing 3 μl of the supernatant and 1.6% Triton X-100 was allowed to react with 5 μl of 1.2 mM of each of sphingolipids shown in Table 2 at 37° C. for 16 hours, and then the resulting mixture was analyzed with a thin layer chromatography.
The digestion ratios of various substrates by a crude SCDase obtained from Shewanella alga NS-589.

SCDase = test: Substrate specificity (hydrolysis) of purified SCDase from Pseudomonas sp. TK-4; type: biochemical; conditions: 10 nmol sphingolipid, 2 milliunits enzyme, 37° C. 16 h, 20 mM sodium acetate buffer pH 5.0, 0.8% Triton X-100, TLC
Protocol: (§1) The enzyme activity of the SCDase is assayed in the following manner. To 10 μl of a substrate solution [50 mM acetate buffer solution (pH 6.0) containing 2 mM of asialo GM1 and 0.6% (w/v) of Triton X-100] is added 10 μl of an enzyme solution. After reacting at 37° C. for 30 minutes, the enzyme reaction is ceased by heating the mixture to 100° C. for 3 minutes. Then the reaction mixture is concentrated to dryness with a centrifugal concentrator. Then the obtained concentrate is dissolved in 10 μl of 50% methanol and placed on a TLC plate (silica gel 60; manufactured by Merck & Co., Inc.). After developing with chloroform/methanol/0.02% aqueous solution of CaCl2 (5/4/1 by volume), the sphingolipid is subjected to color development by the orcinol-sulfuric acid method. […] This spot is determined by using a TLC chromatoscanner (Shimadzu CS-9000, manufactured by Shimadzu Corporation) at a wavelength of 540 nm.
Sphingolipids (10 nmol each) were incubated at 37° C. for 16 h with 2 milliunits of the enzyme in 20 μl of 20 mM sodium acetate buffer, pH 5.0, containing 0.8% Triton X-100. The extent of hydrolysis was examined by TLC and calculated.

[4] = Enzymological properties of SCDase of Pseudomonas sp. TK-4 (optimum pH, temperature, stability); type: biochemical
Protocol: as §1
One unit (1 U) of activity is defined as the amount of the enzyme liberating 1 μmol of lysoasialo GM1 per minute from asialo GM1 at 37° C. […]
The enzyme of the present invention is maintained at each definite pH value at 5C for 16 hours. After returning the pH value to 6.0, the enzyme activity is measured to thereby examine the pH stability of the enzyme. […]

| Molecule | Relative activity (%) [1] | Relative activity (%) [3] | Digestion ratio (%) (SCDase) | other results |
| --- | --- | --- | --- | --- |
| CCCCCCCCCCCCC/C=C/[C@@H](O)[C@@H](N)CO[C@@H]1O[C@H](CO)[C@H](O)[C@H](O)[C@H]1O [Galactosylsphingosine, galactosylsphingosine] | 100.0% |  |  |  |
| CCCCCCCCCCCCC/C=C/[C@@H](O)[C@@H](N)CO[C@@H]1O[C@H](CO)[C@@H](O[C@@H]2O[C@H](CO)[C@H](O[C@@H]3O[C@H](CO)[C@H](O)[C@H](O[C@@H]4O[C@H](CO)[C@H](O)[C@H](O)[C@H]4O)[C@H]3NC(C)=O)[C@H](O[C@]3(C(=O)O)C[C@H](O)[C@@H](NC(C)=O)[C@H]([C@H](O)[C@H](O)CO)O3)[C@H]2O)[C@H](O)[C@H]1O [Lysoganglioside GM1a] | 15.4% |  |  | Reaction Efficiency (%) [2]: 29% |
| CCCCCCCCCCCCCC=CC(O)C(N)COC1OC(CO)C(OC2OC(CO)C(O)C(OC3(C(=O)O)CC(O)C(NC(C)=O)C(C(O)C(O)CO)O3)C2O)C(O)C1O (stereo not drawn) [Lysoganglioside GM3] |  |  |  | Reaction Efficiency (%) [2]: 24% |
| CCCCCCCCCCCCC/C=C/[C@@H](O)[C@@H](N)CO[C@@H]1O[C@H](CO)[C@@H](O[C@@H]2O[C@H](CO)[C@H](O)[C@H](O)[C@H]2O)[C@H](O)[C@H]1O [Lysolactosyl ceramide] | 37.2% |  |  |  |
| CCCCCCCCCCCCC/C=C/[C@@H](O)[C@@H](N)COP(=O)([O-])OCC[N+](C)(C)C [Lysosphingomyelin, sphingosylphosphorylcholine] | 5.7% |  |  |  |
| CCCCCCCCCCCCC/C=C/[C@@H](O)[C@@H](N)CO[C@@H]1O[C@H](CO)[C@H](O)[C@H](OS(=O)(=O)O)[C@H]1O [Lysosulfatide] | 59.6% |  |  |  |
| CCCCCCCCCCCCC/C=C/[C@@H](O)[C@@H](N)CO [Sphingosine, sphingosine] | 11.5% |  |  | Reaction Efficiency (%) [2]: 69% |
| Ceramide |  | 77.5% |  |  |
| GD1a |  | 6.2% | 49% | Digestion ratio (%) (Pseudomonas sp. TK-4): 100%; Substrate specificity: acting on the substrate, forming the corresponding lysosphingolipid and fatty acid (crude SCDase): Acting on; Digestion ratio (%) (crude SCDase): 32.6% |
| GD1b |  | 1.2% |  | Digestion ratio (%) (Pseudomonas sp. TK-4): 100%; Substrate specificity: acting on the substrate, forming the corresponding lysosphingolipid and fatty acid (crude SCDase): Acting on |
| GT1b |  |  |  | Digestion ratio (%) (Pseudomonas sp. TK-4): 100%; Digestion ratio (%) (crude SCDase): 26.2% |
| Gal-GalNAc-Gal-Glc-Cer [Asialo GM1] |  | 164.0% | 67% |  |
| Galactosyl ceramide [Gal-cer] |  | 100.0% | 42% |  |
| Glucosyl ceramide [Glc-cer] |  | 129.0% | 48% |  |
| Sulfatide |  | 31.7% | 59% | Digestion ratio (%) (Pseudomonas sp. TK-4): 100%; Substrate specificity: acting on the substrate, forming the corresponding lysosphingolipid and fatty acid (crude SCDase): Acting on |
| lactosyl ceramide [Lac-cer] |  | 112.0% | 64% | Substrate specificity: acting on the substrate, forming the corresponding lysosphingolipid and fatty acid (crude SCDase): Acting on; Digestion ratio (%) (crude SCDase): 19.3% |
| SCDase (Pseudomonas sp. TK-4): sphingolipid ceramide N-deacylase produced by Pseudomonas sp. TK-4, SEQ ID NO:1 (protein, OTHER INFORMATION: Description of Unknown Or ganism: sphingolipid ceramide N-deacylase) ELGDYGAWKTLLNLTSPPKADNPVRAEQRVGPYPMLANPAGFRSGFTPTAYFAWQTVQLAPETGAVCGDGSPYKFFVNRMPNTSNTLIYMEGGGACWDYASCSGQAGIRGARNPNGIPDDYMKLANPQASLVSPFVVRLHPYSRVKTQGWNIVYIPYCTGDLYAGDKVAVYDDPSGKKPPLVWHHNGLRNGRAVLGWLKDNLERPGQMLSTGCSAGGAGSLISHSVLRQDLAPDRGFLIDDSGPVFSAAVGGDSQTYPSLPLQNLIRSAWGLDQGPLQFLQSRLPGVSLSNLGSLYPALAANFPGDRLGHTHFWQDLNYSSYSYERFYPEIANAPDKATKEALIKAKWQVDTARLRDTLANLPNFGGYFPQYRALNESHCTTIVDFANGDIQEQGLELSHFIDNVLNGQGPVLDASELSDSADRAKPNNLIYDAINKLL |  |  |  | Optimum temperature (maximum activity) ([4]; FIG. 2): about 40 °C; Heat stability: activity sustained ([4]; after treating at 60° C. for 30 minutes, FIG. 4): 90% |
